Experimental findings from patent publication US20120264786A1, “USE OF THIAZOLIDINEDIONES FOR THE PARTIAL INHIBITION OF ANDROGEN BINDING TO AROMATASE” (priority 2008, published 2012) are described below.

For assay [1], the system named is Human granulosa cells. As to the kind of experiment: Estradiol production by cultured human granulosa cells with testosterone as substrate (ELISA/RIA). Type of assay: cell-based. To be noted: 3 μM testosterone; for reduction of the inhibitory effect on insulin-induced estradiol production: in the presence of aromatase inhibitor I and insulin, FIG. 2A vs FIG. 2C. On the procedure:
(§1) Human granulosa cells were obtained during in vitro fertilization over the course of 18 months and were pooled from several patients at a time to ensure adequate cell number for the experiments. The diagnoses included male factor, tubal factor and uterine factor infertility, endometriosis and anovulation. […] La Jolla, Calif.). Estrone and estradiol concentrations in the tissue culture medium were measured using enzyme-linked immuno-sorbent assay (ELISA) (Alpco Diagnostics, Salem, N.H.) or radioimmunoassay (RIA) (Diagnostic Systems Laboratories, Webster, Tex.). […] The statistical interactions between the sets of data obtained with or without rosiglitazone or pioglitazone and with or without aromatase inhibitor I were examined. Pairwise Bonferroni-adjusted contrasts were used to determine statistical significance. […] Adjustments were made for initial inhibition of estradiol or estrone production induced by rosiglitazone or pioglitazone in the absence of insulin, with or without aromatase inhibitor I.

For assay [2], the system named is aromatase enzyme (protein) expression. As to the kind of experiment: Aromatase enzyme expression by immunoprecipitation and immunoblotting in granulosa cells. Type of assay: cell-based, human. To be noted: androstenedione or testosterone as substrate; for effect on aromatase enzyme expression: 25 μM, absence or presence of insulin, vs control. As for the experimental part:
La Jolla, Calif.). […] Cambridge, Mass.) were added to 1 ml of cell lysate. […] The lysate was centrifuged at 6,000 rpm for 3 min and the supernatant was transferred into another micro-centrifuge tube. […] Metab. 92: 2232-2239, 2007, which is incorporated herein by reference. The mixture was incubated for 3-4 h at 4° C. After Protein A-agarose was added, the mixture was incubated again overnight at 4° C. The immunoprecipitate complexes were collected by centrifugation and washed. The samples were then resuspended in 2× Laemmli buffer (BioRad, Hercules, Calif.) supplemented with 1 mM DTT (Cleland's reagent, 1, 4-dithiothreitol, threo-1, 4-dimercapto-2, 3-butanediol, Roche Inc, Indianapolis, Ind.). […] The bands were detected by chemiluminescence (Pierce, Rockford, Ill.). For the analysis of the expression of aromatase, NIH Scion Imaging program was used to evaluate integrated band intensity.

Assay [3] relates to aromatase mRNA. Nature of the assay: RT-PCR analysis of aromatase mRNA expression in granulosa cells. The assay is classed as cell-based, human. To be noted: androstenedione or testosterone as substrate.
The subject of assay [4] is Human granulosa cells. As to the kind of experiment: Estrone production by cultured human granulosa cells with androstenedione as substrate (ELISA/RIA). The assay is classed as cell-based. To be noted: 3 μM androstenedione. On the procedure: as §1
Assay [5] deals with T1, aromatase enzyme (Homo sapiens, UniProt P11511).
T1 construct: The aromatase enzyme was immunoprecipitated as described above; endogenous in cells; host or cells: primary granulosa cells (human), lysate immunoprecipitated with anti-human aromatase antibody and Protein A-agarose
T1 sequence (P11511 1-503): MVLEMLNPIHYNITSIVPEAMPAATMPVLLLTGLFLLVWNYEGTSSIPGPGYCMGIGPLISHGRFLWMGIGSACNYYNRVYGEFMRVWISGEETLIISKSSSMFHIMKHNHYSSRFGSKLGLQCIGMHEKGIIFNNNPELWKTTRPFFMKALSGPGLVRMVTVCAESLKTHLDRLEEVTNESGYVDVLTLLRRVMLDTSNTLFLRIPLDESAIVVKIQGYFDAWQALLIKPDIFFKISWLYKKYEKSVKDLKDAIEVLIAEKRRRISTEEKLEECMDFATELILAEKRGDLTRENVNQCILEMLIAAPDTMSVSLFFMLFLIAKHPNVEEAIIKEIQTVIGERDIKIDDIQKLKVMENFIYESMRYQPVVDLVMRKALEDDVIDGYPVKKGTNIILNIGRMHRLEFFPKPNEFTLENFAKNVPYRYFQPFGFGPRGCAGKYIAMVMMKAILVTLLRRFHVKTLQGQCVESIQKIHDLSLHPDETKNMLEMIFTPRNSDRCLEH
As to the kind of experiment: 125I-testosterone binding to immunoprecipitated aromatase enzyme. To be noted: for inhibition at 25 µM: 1 μM testosterone, vs control. As for the experimental part:
(§2) Rabbit polyclonal anti-human aromatase antibodies (1.4 μg) (Abcam, Inc. Cambridge, Mass.) were added to 1 ml of cell lysate. The lysate buffer contained 20 mM Tris-HCl (pH 7.4), 150 mM NaCl, 1 mM CaCl2, 1 mM MgCl2, 1 mM Na orthovanadate, 1% NP40, 1 mM AEBSF (4-2-aminoethyl-benzenesulfonyfluoride, hydrochloride), 0.8 μM aprotinin, 50 μM bestain, 15 μM E-64, 20 μM leupeptin, 10 μM pepstatin A, 1 mM phenylmethylsulfonyl fluoride and 10 μg/ml trypsin inhibitor. The lysate was centrifuged at 6,000 rpm for 3 min and the supernatant was transferred into another micro-centrifuge tube. […] Metab. 92: 2232-2239, 2007, which is incorporated herein by reference. The mixture was incubated for 3-4 h at 4° C. After Protein A-agarose was added, the mixture was incubated again overnight at 4° C. The immunoprecipitate complexes were collected by centrifugation and washed. The samples were then resuspended in 2× Laemmli buffer (BioRad, Hercules, Calif.) supplemented with 1 mM DTT (Cleland's reagent, 1, 4-dithiothreitol, threo-1, 4-dimercapto-2, 3-butanediol, Roche Inc, Indianapolis, Ind.). […] The bands were detected by chemiluminescence (Pierce, Rockford, Ill.). For the analysis of the expression of aromatase, NIH Scion Imaging program was used to evaluate integrated band intensity.
(§3) The aromatase enzyme was immunoprecipitated as described above. Purified aromatase bound to Protein A-agarose was added to 250 μl of solution containing the final concentration of 1 μM testosterone (2 μCi of [125I]/m1 testosterone with the specific radioactivity of 857 μCi/nmol) or androstenedione (3.5 μCi of [125I]/ml androstenedione with the specific radioactivity of 430 μCi/nmol), with insulin (0, 10, 10^2, 10^3 ng/ml) and with or without 25 μM rosiglitazone or pioglitazone. The mixture was incubated at room temperature for 30 min and then centrifuged at 6000 rpm for 3 min. The pellets were washed two times with 400 μl Dulbecco's phosphate saline. The bound testosterone or androstenedione, expressed as % of total testosterone or androstenedione, was measured in Wizard gamma counter.

For assay [6], the target named is T1, aromatase enzyme. Nature of the assay: 125I-androstenedione binding to immunoprecipitated aromatase enzyme. To be noted: for inhibition at 25 µM: 1 μM androstenedione, vs control. On the procedure:
as §2, §3

Where [7] appears, read: 25 μM TZD, presence of insulin, absence of aromatase inhibitor I, vs control without TZD.
[8] abbreviates: 25 μM, absence or presence of insulin, vs control.
Where [9] appears, read: insulin, absence of aromatase inhibitor I, vs baseline.
[10] abbreviates: in the presence of aromatase inhibitor I.

`CCc1ccc(CCOc2ccc(CC3SC(=O)NC3=O)cc2)nc1` (centres unmarked) [pioglitazone]: the “inhibition of estradiol production” value in assay [1] (setting [7]) was 34%. Also, in assay [1], the “reduction of the inhibitory effect on insulin-induced estradiol production” value was determined as 62%. Besides, in assay [2], the “effect on aromatase enzyme expression” value is reported as “no significant effect”. Besides, the “effect on aromatase mRNA” value in assay [3] (setting [8]) is listed as “no significant effect”. Further, the “inhibition of estrone production” value in assay [4] (setting [7]) worked out at 22%. In addition, the inhibition at 25 µM in assay [5] was determined as 32%; in assay [6], 20%.
Take “insulin: insulin added to granulosa cell culture (0-10^4 ng/ml)”: the “stimulation of estradiol production” value in assay [1] (setting [9]) is 124%. Further, in assay [2] (insulin alone), the “effect on aromatase enzyme (protein) expression” value is given as “did not affect”. The “effect on aromatase mRNA” value in assay [3] (insulin alone) is reported as “no effect”. Moreover, the “stimulation of estrone production” value in assay [4] (setting [9]) is given as 114%. In assay [5] (insulin alone), the “effect on the binding of testosterone to aromatase” value is listed as “no effect”. For the same molecule, the “effect on the binding of androstenedione to aromatase” value in assay [6] (insulin alone) is “no effect”.
In the case of “4-(imidazolylmethyl)-1-nitro-9H-9-xanthenone [aromatase inhibitor I]”, in assay [1] (setting [10]), the “inhibition of estradiol production” value is recorded as 72% and the “insulin-induced stimulation of estradiol production” value was “completely abolished”. In assay [4] (aromatase inhibitor 100 to 200 nM), the “inhibition of estrone production” value worked out at 55%.
On to `CN(CCOc1ccc(CC2SC(=O)NC2=O)cc1)c1ccccn1` (centres unmarked) [rosiglitazone], for which the “inhibition of estradiol production” value in assay [1] (setting [7]) was 34%. The “reduction of the inhibitory effect on insulin-induced estradiol production” value in assay [1] is recorded as 62%. Besides, the “effect on aromatase enzyme expression” value in assay [2] is listed as “no significant effect”. In addition, in assay [3] (setting [8]), the “effect on aromatase mRNA” value is reported as “no significant effect”. In addition, in assay [4] (setting [7]), the “inhibition of estrone production” value stood at 22%. Also, the inhibition at 25 µM stood at 38% in assay [5] and 20% in assay [6].
